{
  "source": "patent US20240208935A1",
  "about": "“COMPOSITIONS AND METHODS FOR TREATING NEURODEGENERATIVE DISEASES” (The Regents of the University of California, priority 2021, published 2024)",
  "type_in_all_cases": "cell-based, mice",
  "key": {"α1β2δ GABAARs of PV+INs": {"target": "T1, α1β2δ GABAARs of PV+INs (Mus musculus, UniProt P22933+P62812+P63137)", "T1 construct": "the native α1β2δ receptors of PV+INs; from tissue; host or cells: mouse cortical and hippocampal brain slices; tdTomato-labelled PV+ interneurons", "T1 sequence (P62812 28-455)": "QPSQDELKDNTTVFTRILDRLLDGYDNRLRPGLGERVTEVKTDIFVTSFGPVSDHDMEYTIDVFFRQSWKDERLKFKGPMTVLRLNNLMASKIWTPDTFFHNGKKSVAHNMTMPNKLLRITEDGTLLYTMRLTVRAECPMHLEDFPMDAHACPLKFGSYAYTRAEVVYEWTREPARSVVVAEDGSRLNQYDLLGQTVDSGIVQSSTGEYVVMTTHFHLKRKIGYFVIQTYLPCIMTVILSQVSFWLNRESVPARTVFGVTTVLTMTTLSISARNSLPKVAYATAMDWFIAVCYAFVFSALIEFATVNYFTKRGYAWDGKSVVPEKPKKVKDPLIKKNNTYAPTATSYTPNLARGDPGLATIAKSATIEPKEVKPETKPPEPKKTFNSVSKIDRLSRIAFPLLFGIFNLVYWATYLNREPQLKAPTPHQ", "T1 sequence (P63137 26-512)": "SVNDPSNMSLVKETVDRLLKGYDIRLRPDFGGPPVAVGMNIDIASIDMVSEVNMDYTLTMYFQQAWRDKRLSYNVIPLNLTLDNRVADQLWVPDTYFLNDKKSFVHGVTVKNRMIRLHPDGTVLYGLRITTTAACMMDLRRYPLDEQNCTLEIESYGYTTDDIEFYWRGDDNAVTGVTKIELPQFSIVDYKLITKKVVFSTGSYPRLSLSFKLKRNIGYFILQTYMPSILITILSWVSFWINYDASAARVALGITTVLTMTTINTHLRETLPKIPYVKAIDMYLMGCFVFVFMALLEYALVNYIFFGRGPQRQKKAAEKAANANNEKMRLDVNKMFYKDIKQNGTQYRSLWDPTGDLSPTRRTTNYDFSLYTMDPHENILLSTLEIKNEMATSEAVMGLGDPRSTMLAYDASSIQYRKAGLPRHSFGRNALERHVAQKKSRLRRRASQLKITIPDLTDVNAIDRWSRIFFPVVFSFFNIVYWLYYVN", "T1 sequence (P22933 25-449)": "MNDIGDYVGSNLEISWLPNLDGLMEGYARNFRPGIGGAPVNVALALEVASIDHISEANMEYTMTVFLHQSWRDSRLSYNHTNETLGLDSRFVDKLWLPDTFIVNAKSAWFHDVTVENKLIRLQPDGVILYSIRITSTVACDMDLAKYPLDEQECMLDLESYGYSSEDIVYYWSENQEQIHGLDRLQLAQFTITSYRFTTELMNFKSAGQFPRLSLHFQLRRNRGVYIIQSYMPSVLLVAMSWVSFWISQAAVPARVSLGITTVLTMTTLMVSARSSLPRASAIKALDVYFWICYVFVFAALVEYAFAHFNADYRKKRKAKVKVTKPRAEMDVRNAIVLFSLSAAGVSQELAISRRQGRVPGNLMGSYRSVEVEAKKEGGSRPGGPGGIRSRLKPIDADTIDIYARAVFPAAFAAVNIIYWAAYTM", "test": "Tonic current recordings in fluorescently labeled PV+INs", "settings": "1 nM, 1-(current in drug/current in control), read-out: fraction inhibited of the tonic current", "text": "(§1) Mice aged 8-24 weeks of both sexes will be anesthetized with halothane and decapitated according to the UCLA Chancellor's Animal Research Committee protocol. Horizontal 350 μm hippocampal slices are cut on a Leica VT1000S Vibratome in ice-cold N-Methyl-D-Glucamine (NMDG)-based HEPES-buffered cutting solution, containing in mM: NMDG 135, D-glucose 10, MgCl2 4, CaCl20.5, KCl 1, KH2PO4 1.2, HEPES 26, kynurenic acid 3, pH 7.3-7.4, 295-297 mOsm/l, bubbled with 100% O2. […]\n(§2) For these experiments mice expressing hChR2(H134R)-tdTomato specifically in PV+Ins will be used. […] Cells will be voltage-clamped at 0 mV where tonic and phasic GABAAR mediated currents can be recorded without interference from excitatory events. The tonic and phasic components of the currents will be determined as published using Gaussian fits to the all-points histograms of 30 s epochs of recordings during the pre-drug period, 5-10 min after the washin of the drug to be tested, and 1-2 min after washing-in 40 μM of the pan-GABAAR blocker gabazine (SR-95531). The magnitude of the tonic and phasic currents willbe determined by subtracting the currents in the presence of gabazine. […]"}, "[1]": {"test_system": "dentate gyrus granule cells (α4β2/3δ)", "test": "Tonic inhibition in dentate gyrus granule cells (selectivity)", "settings": "1 nM", "text": "In addition to the α1β2δ GABAARs of PV+INs, the following native δ-GABAARs subunit combinations are present in the brain: (α6β2δ on cerebellar granule cells; α4β2/3δ are most prominent in the forebrain where they are found among other neurons on dentate gyrus granule cells. To establish selectivity of the compounds for the α1β2δ GABAARs of PV+INs, the compounds effects in cerebellar granule cells (α6β2δ) and dentate gyrus granule cells (α4β2/3δ) will be compared.\nSelectivity measurement will be performed by dividing the blocking fractions of the compounds for tonic inhibition obtained for the PV+IN above by the values determined for cerebellar and dentate gyrus granule cells."}, "[2]": {"test_system": "γ-oscillations in the CA3 region hippocampal slices", "test": "In vitro KA-induced γ-oscillations in the CA3 region hippocampal slices", "settings": "1 nM; 2 min epochs before and after application; 50 nM kainic acid", "text": "as §1\nThe oscillations can be recorded in the presence of 50 nM kainic acid in horizontally cut hippocampal slices just below the CA3 pyramidal cells layer, and the oscillations recorded in vitro correspond well to those recorded in vivo during spatial reference memory. […] The squared magnitude of the FFT of the oscillations will be analyzed between 30-120 Hz. The area under the FFT curve will be calculated between these two frequencies and compared during a 2 min epoch just before the perfusion of the drug to the last 2 min of a 10 min drug perfusion. The ratios of the areas in-drug/pre-drug will be calculated as in FIG. 1B.\nγ-oscillations were recorded in the presence of 50 nM kainic acid in horizontally cut hippocampal slices just below the CA3 pyramidal cells layer. These oscillations recorded in vitro correspond well to those recorded in vivo during spatial reference memory. […]"}, "[3]": {"target": "T2, fast synaptic α1β2γ2 receptors (Mus musculus, UniProt P22723+P62812+P63137)", "T2 construct": "from tissue; host or cells: mouse cortical and hippocampal brain slices; tdTomato-labelled PV+ interneurons", "T2 sequence (P62812 28-455)": "as the sequence (P62812 28-455) above", "T2 sequence (P63137 25-512 limits assumed)": "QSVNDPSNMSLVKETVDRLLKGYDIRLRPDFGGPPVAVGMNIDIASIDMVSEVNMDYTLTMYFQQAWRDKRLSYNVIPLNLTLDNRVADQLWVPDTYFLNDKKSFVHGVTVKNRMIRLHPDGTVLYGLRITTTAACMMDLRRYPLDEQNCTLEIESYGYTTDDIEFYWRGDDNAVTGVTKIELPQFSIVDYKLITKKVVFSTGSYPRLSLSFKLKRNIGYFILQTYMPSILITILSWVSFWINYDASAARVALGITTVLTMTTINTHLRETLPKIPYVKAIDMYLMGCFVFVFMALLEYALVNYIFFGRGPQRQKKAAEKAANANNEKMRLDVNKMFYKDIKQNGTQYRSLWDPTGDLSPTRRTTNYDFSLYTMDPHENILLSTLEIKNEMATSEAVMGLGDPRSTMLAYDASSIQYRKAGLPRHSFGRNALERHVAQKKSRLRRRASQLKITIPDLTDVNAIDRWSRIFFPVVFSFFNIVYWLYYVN", "T2 sequence (P22723 39-474)": "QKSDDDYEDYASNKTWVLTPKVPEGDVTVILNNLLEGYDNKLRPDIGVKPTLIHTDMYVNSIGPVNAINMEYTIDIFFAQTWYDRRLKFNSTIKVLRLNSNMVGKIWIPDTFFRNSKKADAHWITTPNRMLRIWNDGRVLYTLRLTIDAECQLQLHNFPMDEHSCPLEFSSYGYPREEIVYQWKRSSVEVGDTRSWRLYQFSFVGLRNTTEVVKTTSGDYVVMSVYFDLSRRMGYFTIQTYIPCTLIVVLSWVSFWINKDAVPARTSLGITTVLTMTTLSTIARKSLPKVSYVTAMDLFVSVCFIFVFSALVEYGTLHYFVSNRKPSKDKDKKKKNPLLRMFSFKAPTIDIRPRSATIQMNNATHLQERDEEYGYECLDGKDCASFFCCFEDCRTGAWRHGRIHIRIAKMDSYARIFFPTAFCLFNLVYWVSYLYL", "test": "Phasic current recordings in fluorescently labeled PV+INs", "settings": "1 nM, 1-(current in drug/current in control), read-out: fraction inhibited of the phasic current", "text": "as §1, §2"}},
  "data": [
    {"smiles": "On1cc(C2CCNCC2)c(Cc2ccc3ccccc3c2)n1", "note": "[DDL-920, 3-(naphthalen-2-ylmethyl)-4-(piperidin-4-yl)-1H-pyrazol-1-ol]", "values": [
      {"measurement": "inhibition at 0.001 µM", "setting": "α1β2δ GABAARs of PV+INs", "result": 79.2, "unit": "%"},
      {"measurement": "blocking fraction for tonic inhibition in dentate granule cells", "setting": "[1]", "result": 0.376},
      {"measurement": "selectivity, PV+IN vs dentate granule cell blocking fraction of tonic inhibition", "setting": "[1]; PV+IN/dentate granule cell", "result": 2.11},
      {"measurement": "ratio of the drug/control areas under the FFT curve between 30-120 Hz", "setting": "[2]", "result": 4.26},
      {"measurement": "inhibition at 0.001 µM", "setting": "[3]", "result": 1.1, "unit": "%"}
    ]}
  ]
}
